Biological target: T1, human MDM2 (GST-hMDM2 1-188), interaction with biotinylated-p53 (1-83) (Homo sapiens, UniProt Q00987)
T1 construct: Amino acid residues 1-188 of human MDM2 were expressed; made in house; host or cells: Escherichia coli
Assay: improved HTRF assay (HTRF2 assay), inhibition of HDM2-p53 interaction
Format: binding
Conditions: 0.2 nM GST-hMDM2, 0.5 nM biotinylated-p53, 100 mM KF
Summary of the method: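 GST-hMDM2 preincubated 20 min at RT with serially diluted compound, then biotinylated p53 (1-83, E. coli) added for 60 min. Detection with SA-XLent, anti-GST cryptate and KF, equilibrated >4 h; final DMSO 2%. TR-FRET read; % inhibition calculated relative to nutlin-3.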

T1 sequence (Q00987 1-188): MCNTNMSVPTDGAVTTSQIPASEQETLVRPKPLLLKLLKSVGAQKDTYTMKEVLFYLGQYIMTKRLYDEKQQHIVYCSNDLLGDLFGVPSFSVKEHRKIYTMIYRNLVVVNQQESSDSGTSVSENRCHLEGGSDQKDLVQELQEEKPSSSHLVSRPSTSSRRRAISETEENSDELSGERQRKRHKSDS

Structure (SMILES)	IC50
O=C(O)C[C@H]1O[C@H](c2cccc(Cl)c2)[C@@H](c2ccc(Cl)cc2)N([C@H](CS(=O)(=O)N2CCOCC2)C2CC2)C1=O (single isomer, unassigned) [Example 302, 2-((2R,5R,6R)-6-(3-Chlorophenyl)-5-(4-chlorophenyl)-4-((S)-1-cyclopropyl-2-(morpholinosulfonyl)ethyl)-3-oxomorpholin-2-yl)acetic acid or 2-((2S,5R,6R)-6-(3-chlorophenyl)-5-(4-chlorophenyl)-4-((S)-1-cyclopropyl-2-(morpholinosulfonyl)ethyl)-3-oxomorpholin-2-yl)acetic acid]	< 1 nM
CC(C)(C)S(=O)(=O)C[C@@H](C1CCC1)N1C(=O)[C@@H](CC(=O)O)O[C@H](c2cccc(Cl)c2)[C@H]1c1ccc(Cl)cc1 (single isomer, unassigned) [Example 272, 2-((2R,5R,6R)-4-((R)-2-(tert-Butylsulfonyl)-1-cyclobutylethyl)-6-(3-chlorophenyl)-5-(4-chlorophenyl)-3-oxomorpholin-2-yl)acetic acid or 2-((2S,5R,6R)-4-((R)-2-(tert-butylsulfonyl)-1-cyclobutylethyl)-6-(3-chlorophenyl)-5-(4-chlorophenyl)-3-oxomorpholin-2-yl)acetic acid]	154 nM
CC[C@@H](CS(=O)(=O)C(C)(C)C)N1C(=O)[C@@H](C[C@@H](O)CO)O[C@H](c2cccc(Cl)c2)[C@H]1c1ccc(Cl)cc1 (single isomer, unassigned) [Example 373]	45 nM
CC(C)(C)S(=O)(=O)C[C@H](C1CC1)N1C(=O)[C@@H](Cc2ncn[nH]2)O[C@H](c2cccc(Cl)c2)[C@H]1c1ccc(Cl)cc1 (single isomer, unassigned) [Example 390, (2R,5R,6R)-2-((1H-1,2,4-Triazol-5-yl)methyl)-4-((S)-2-(tert-butylsulfonyl)-1-cyclopropylethyl)-6-(3-chlorophenyl)-5-(4-chlorophenyl)morpholin-3-one or (2S,5R,6R)-2-((1H-1,2,4-triazol-5-yl)methyl)-4-((S)-2-(tert-butylsulfonyl)-1-cyclopropylethyl)-6-(3-chlorophenyl)-5-(4-chlorophenyl)morpholin-3-one]	11 nM
CC[C@@H](CN(c1ccccc1F)S(=O)(=O)C1(C)CC1)N1C(=O)[C@@H](CC(=O)O)O[C@H](c2cccc(Cl)c2)[C@H]1c1ccc(Cl)cc1 (single isomer, unassigned) [Example 174, 2-((2R,5R,6R)-6-(3-chlorophenyl)-5-(4-chlorophenyl)-4-((S)-1-(N-(2-fluorophenyl)-1-methylcyclopropanesulfonamido)butan-2-yl)-3-oxomorpholin-2-yl)acetic acid or 2-((2S,5R,6R)-6-(3-chlorophenyl)-5-(4-chlorophenyl)-4-((S)-1-(N-(2-fluorophenyl)-1-methylcyclopropanesulfonamido)butan-2-yl)-3-oxomorpholin-2-yl)acetic acid]	< 1 nM
CC[C@@H](CS(=O)(=O)C(C)C)N1C(=O)[C@H](CC(=O)O)O[C@H](c2cc(F)cc(Cl)c2)[C@H]1c1ccc(Cl)cc1 (single isomer, unassigned) [Example 125, 2-((2S,5R,6R)-6-(3-Chloro-5-fluorophenyl)-5-(4-chlorophenyl)-4-((S)-1-(isopropylsulfonyl)butan-2-yl)-3-oxomorpholin-2-yl)acetic acid or 2-((2R,5R,6R)-6-(3-Chloro-5-fluorophenyl)-5-(4-chlorophenyl)-4-((S)-1-(isopropylsulfonyl)butan-2-yl)-3-oxomorpholin-2-yl)acetic acid]	11 nM
CC(C)(C)S(=O)(=O)C[C@H](C1CC1)N1C(=O)[C@@H](CC(=O)O)O[C@H](c2ccc(F)c(Cl)c2)[C@H]1c1ccc(Cl)cc1 (single isomer, unassigned) [Example 320, 2-((2R,5R,6R)-4-((S)-2-(tert-Butylsulfonyl)-1-cyclopropylethyl)-6-(3-chloro-4-fluorophenyl)-5-(4-chlorophenyl)-3-oxomorpholin-2-yl)acetic acid or 2-((2S,5R,6R)-4-((S)-2-(tert-butylsulfonyl)-1-cyclopropylethyl)-6-(3-chloro-4-fluorophenyl)-5-(4-chlorophenyl)-3-oxomorpholin-2-yl)acetic acid]	3 nM
Cn1ccnc1C[C@H]1O[C@H](c2cccc(Cl)c2)[C@@H](c2ccc(Cl)cc2)N([C@H](CS(=O)(=O)C(C)(C)C)C2CC2)C1=O [Example 402, (2R,5R,6R)-4-((S)-2-(tert-Butylsulfonyl)-1-cyclopropylethyl)-6-(3-chlorophenyl)-5-(4-chlorophenyl)-2-((1-methyl-1H-imidazol-2-yl)methyl)morpholin-3-one]	29 nM
CC[C@@H](CS(=O)(=O)[C@H](C)C(C)C)N1C(=O)[C@H](CC(=O)O)O[C@H](c2cccc(Cl)c2)[C@H]1c1ccc(Cl)cc1 (single isomer, unassigned) [Example 284]	5 nM
CC(C)(O)CS(=O)(=O)C[C@H](C1CC1)N1C(=O)[C@@H](CC(=O)O)O[C@H](c2cccc(Cl)c2)[C@H]1c1ccc(Cl)cc1 (single isomer, unassigned) [Example 289, 2-((2R,5R,6R)-6-(3-Chlorophenyl)-5-(4-chlorophenyl)-4-((S)-1-cyclopropyl-2-((2-hydroxy-2-methylpropyl)sulfonyl)ethyl)-3-oxomorpholin-2-yl)acetic acid or 2-((2S,5R,6R)-6-(3-chlorophenyl)-5-(4-chlorophenyl)-4-((S)-1-cyclopropyl-2-((2-hydroxy-2-methylpropyl)sulfonyl)ethyl)-3-oxomorpholin-2-yl)acetic acid]	2 nM
CCC[C@@H](CS(=O)(=O)C(C)(C)C)N1C(=O)[C@@H](CC(=O)O)O[C@H](c2cccc(Cl)c2)[C@H]1c1ccc(Cl)cc1 (single isomer, unassigned) [Example 194, 2-((2R,5R,6R)-4-((S)-1-(tert-butylsulfonyl)pentan-2-yl)-6-(3-chlorophenyl)-5-(4-chlorophenyl)-3-oxomorpholin-2-yl)acetic acid or 2-((2S,5R,6R)-4-((S)-1-(tert-butylsulfonyl)pentan-2-yl)-6-(3-chlorophenyl)-5-(4-chlorophenyl)-3-oxomorpholin-2-yl)acetic acid]	3 nM
O=C(C[C@H]1O[C@H](c2cccc(Cl)c2)[C@@H](c2ccc(Cl)cc2)N([C@H](CN(c2ccccc2F)S(=O)(=O)C2CC2)C2CC2)C1=O)Nc1ccccn1 (single isomer, unassigned) [Example 368, 2-((2R,5R,6R)-6-(3-Chlorophenyl)-5-(4-chlorophenyl)-4-((S)-1-cyclopropyl-2-(N-(2-fluorophenyl)cyclopropanesulfonamido)ethyl)-3-oxomorpholin-2-yl)-N-(pyridin-2-yl)acetamide or 2-((2S,5R,6R)-6-(3-chlorophenyl)-5-(4-chlorophenyl)-4-((S)-1-cyclopropyl-2-(N-(2-fluorophenyl)cyclopropanesulfonamido)ethyl)-3-oxomorpholin-2-yl)-N-(pyridin-2-yl)acetamide]	< 1 nM
C[C@H]1CCCN1S(=O)(=O)C[C@H](C1CC1)N1C(=O)[C@@](C)(CC(=O)O)O[C@H](c2cccc(Cl)c2)[C@H]1c1ccc(Cl)cc1 (single isomer, unassigned) [Example 336, 2-((2R,5R,6R)-6-(3-Chlorophenyl)-5-(4-chlorophenyl)-4-((S)-1-cyclopropyl-2-(((S)-2-methylpyrrolidin-1-yl)sulfonyl)ethyl)-2-methyl-3-oxomorpholin-2-yl)acetic acid or 2-((2S,5R,6R)-6-(3-chlorophenyl)-5-(4-chlorophenyl)-4-((S)-1-cyclopropyl-2-(((S)-2-methylpyrrolidin-1-yl)sulfonyl)ethyl)-2-methyl-3-oxomorpholin-2-yl)acetic acid]	< 1 nM
CC[C@@H](CS(=O)(=O)C(C)C)N1C(=O)[C@@H](CC(=O)O)O[C@H](c2cc(F)cc(Cl)c2)[C@H]1c1ccc(Cl)cc1 (single isomer, unassigned) [Example 124, 2-((2R,5R,6R)-6-(3-Chloro-5-fluorophenyl)-5-(4-chlorophenyl)-4-((S)-1-(isopropylsulfonyl)butan-2-yl)-3-oxomorpholin-2-yl)acetic acid or 2-((2S,5R,6R)-6-(3-Chloro-5-fluorophenyl)-5-(4-chlorophenyl)-4-((S)-1-(isopropylsulfonyl)butan-2-yl)-3-oxomorpholin-2-yl)acetic acid]	2 nM
CC(C)(C)S(=O)(=O)C[C@H](C1CC1)N1C(=O)[C@@H](CC(=O)Nc2ccccc2F)O[C@H](c2cccc(Cl)c2)[C@H]1c1ccc(Cl)cc1 (single isomer, unassigned) [Example 353, 2-((2R,5R,6R)-4-((S)-2-(tert-Butylsulfonyl)-1-cyclopropylethyl)-6-(3-chlorophenyl)-5-(4-chlorophenyl)-3-oxomorpholin-2-yl)-N-(2-fluorophenyl)acetamide or 2-((2S,5R,6R)-4-((S)-2-(tert-butylsulfonyl)-1-cyclopropylethyl)-6-(3-chlorophenyl)-5-(4-chlorophenyl)-3-oxomorpholin-2-yl)-N-(2-fluorophenyl)acetamide]	9 nM
CC(C)S(=O)(=O)[C@H]1CCC[C@@H]1N1C(=O)[C@@H](CC(=O)O)O[C@H](c2cccc(Cl)c2)[C@H]1c1ccc(Cl)cc1 (single isomer, unassigned) [Example 422]	3 nM
CC[C@@H](CN(c1ccccn1)S(=O)(=O)C1CC1)N1C(=O)[C@H](CC(=O)O)O[C@H](c2cccc(Cl)c2)[C@H]1c1ccc(Cl)cc1 (single isomer, unassigned) [Example 180, 2-((2S,5R,6R)-6-(3-chlorophenyl)-5-(4-chlorophenyl)-3-oxo-4-((S)-1-(N-(pyridin-2-yl)cyclopropanesulfonamido)butan-2-yl)morpholin-2-yl)acetic acid or 2-((2R,5R,6R)-6-(3-chlorophenyl)-5-(4-chlorophenyl)-3-oxo-4-((S)-1-(N-(pyridin-2-yl)cyclopropanesulfonamido)butan-2-yl)morpholin-2-yl)acetic acid]	< 1 nM
